What was measured:
[1] = test system: full thickness cutaneous incisional wounds; assay: Scarring model: rat incisional wounds, macroscopic and microscopic VAS scar assessment at day 70; format: in vivo, Sprague Dawley rats; settings: for macroscopic appearance of scars (macroscopic VAS): before wounding and 1 day post-wounding; for macroscopic appearance of scars (macroscopic VAS) / microscopic appearance of scars (microscopic VAS): vs naïve control or diluent control
Description: At day 0, male Sprague Dawley rats (200-250 g) were anaesthetised, shaved and wound sites were marked according to the Renovo rat incisional wounding template (2 wound model, 2×1 cm wounds, 5 cm from the base of the skull and 1 cm from the midline in each rat). One hundred microlitres of 6-mercaptopurine at 1 ng, 10 ng or 1000 ng in phosphate buffered saline (PBS, pH 7.2; GIBCO BRL, Cat. #20012-019) containing 5% ethanol was injected intradermally at the wound sites. […] Separate groups of rats used as naïve controls and diluent controls. Naïve control animals were wounded without treatment, whilst diluent control animals were injected with 100 μl of the PBS/ethanol mixture prior to wounding. All treated or diluent control wounds were re-injected again 1 day post-wounding with the appropriate treatment via injection of 50 μl to each of the two margins of the 1 cm wound. Wounds from the treated, naïve control and diluent control animals were all harvested at day 70 post-wounding. The wounds were photographed after wounding, prior to re-injection on day 1 and on day of harvest. The scars were assessed using standard macroscopic scar assessment using a visual analogue scale (VAS) consisting of a 0-10 cm line representing a scale, from left to right, of 0 (corresponding to normal skin) to 10 (indicative of a bad scar). For microscopic assessment the scars were excised from the experimental rats (incorporating a small amount of surrounding normal tissue) and fixed in 10% (v/v) buffered formal saline. The fixed tissue was then processed for wax histology, stained using Masson's trichrome, and scarring assessed using a microscopic visual analogue scale (VAS).

incisional wounds = assay: Incisional wound healing model, wounds harvested three days post-wounding; format: in vivo, Sprague Dawley rats
Description: At day 0, male Sprague Dawley rats (200-250 g) were anaesthetised, shaved and wound sites were marked according to the Renovo rat incisional wounding template (2 wound model, 2×1 cm wounds, 5 cm from the base of the skull and 1 cm from the midline in each rat). One hundred microlitres of 6-mercaptopurine at 1 ng, 10 ng or 1000 ng in phosphate buffered saline (PBS, pH 7.2; GIBCO BRL, Cat. #20012-019) containing 5% ethanol was injected intradermally at the wound sites. The intradermal injections caused the formation of a raised bleb, which was then immediately incised to form 1 cm long experimental wounds. Separate groups of rats used as naïve controls and diluent controls. Naïve control animals were wounded without treatment, whilst diluent control animals were injected with 100 μl of the PBS/ethanol mixture prior to wounding. All treated or diluent control wounds were re-injected again 1 day post-wounding with the appropriate treatment via injection of 50 μl to each of the two margins of the 1 cm wound. Wounds from the treated, naïve control and diluent control animals were all harvested at day 70 post-wounding.
Treated and control incisional wounds were created as described above, to allow assessment of the effects of NR4A agonists, such as 6-mercaptopurines, on wound healing. Wounds from the treated, naïve control and diluent control animals were all harvested at three days post-wounding.
The wounds were photographed after wounding, prior to re-injection on day one and on the day of harvest. Day three incisional or excisional wounds were excised from the experimental rats (incorporating a small amount of surrounding normal tissue). […] The fixed tissue was then processed for wax histology, stained using Masson's trichrome, and wound width assessed using image analysis software. Width of incisional wounds was measured at a point mid-way through the depth of the wound, whereas width of excisional wounds was measured at the top of the wounds.

excisional wounds = assay: Excisional wound healing model, 5 mm punch biopsy wounds harvested day 3; format: in vivo, Sprague Dawley rats
Description: One hundred microlitres of 6-mercaptopurine at 1 ng, 10 ng or 1000 ng in phosphate buffered saline (PBS, pH 7.2; GIBCO BRL, Cat. #20012-019) containing 5% ethanol was injected intradermally at the wound sites. […] Separate groups of rats used as naïve controls and diluent controls. Naïve control animals were wounded without treatment, whilst diluent control animals were injected with 100 μl of the PBS/ethanol mixture prior to wounding. […] For microscopic assessment the scars were excised from the experimental rats (incorporating a small amount of surrounding normal tissue) and fixed in 10% (v/v) buffered formal saline. […]

NR4A1 = NR4A1 (Homo sapiens, UniProt P22736); settings: cited from earlier work
NR4A2 = NR4A2 (Homo sapiens, UniProt P43354); settings: cited from earlier work
NR4A3 = NR4A3 (Homo sapiens, UniProt Q92570); settings: cited from earlier work
[2] = day 3, measured mid-way through wound depth, 1, 10 or 1000 ng/100 μl intradermal
[3] = day 3, measured at top of wound, 1, 10 or 1000 ng/100 μl intradermal

Sequence of NR4A1 (P22736 whole entry): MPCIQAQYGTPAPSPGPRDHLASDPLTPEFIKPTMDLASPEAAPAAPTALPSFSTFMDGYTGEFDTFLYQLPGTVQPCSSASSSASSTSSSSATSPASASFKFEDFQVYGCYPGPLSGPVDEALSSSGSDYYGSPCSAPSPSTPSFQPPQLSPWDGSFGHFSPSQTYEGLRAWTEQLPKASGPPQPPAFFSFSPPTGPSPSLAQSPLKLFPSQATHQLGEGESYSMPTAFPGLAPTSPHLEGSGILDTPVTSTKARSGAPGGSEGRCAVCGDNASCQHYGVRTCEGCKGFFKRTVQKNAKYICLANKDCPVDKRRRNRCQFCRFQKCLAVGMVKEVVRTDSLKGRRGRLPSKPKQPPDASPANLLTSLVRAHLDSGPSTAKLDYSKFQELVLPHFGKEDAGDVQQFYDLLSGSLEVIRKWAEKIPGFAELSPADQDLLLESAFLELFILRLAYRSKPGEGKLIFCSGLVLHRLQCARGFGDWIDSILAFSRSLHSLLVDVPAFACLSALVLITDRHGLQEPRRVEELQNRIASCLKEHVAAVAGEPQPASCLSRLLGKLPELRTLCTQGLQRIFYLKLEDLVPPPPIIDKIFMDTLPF
Sequence of NR4A3 (Q92570 whole entry): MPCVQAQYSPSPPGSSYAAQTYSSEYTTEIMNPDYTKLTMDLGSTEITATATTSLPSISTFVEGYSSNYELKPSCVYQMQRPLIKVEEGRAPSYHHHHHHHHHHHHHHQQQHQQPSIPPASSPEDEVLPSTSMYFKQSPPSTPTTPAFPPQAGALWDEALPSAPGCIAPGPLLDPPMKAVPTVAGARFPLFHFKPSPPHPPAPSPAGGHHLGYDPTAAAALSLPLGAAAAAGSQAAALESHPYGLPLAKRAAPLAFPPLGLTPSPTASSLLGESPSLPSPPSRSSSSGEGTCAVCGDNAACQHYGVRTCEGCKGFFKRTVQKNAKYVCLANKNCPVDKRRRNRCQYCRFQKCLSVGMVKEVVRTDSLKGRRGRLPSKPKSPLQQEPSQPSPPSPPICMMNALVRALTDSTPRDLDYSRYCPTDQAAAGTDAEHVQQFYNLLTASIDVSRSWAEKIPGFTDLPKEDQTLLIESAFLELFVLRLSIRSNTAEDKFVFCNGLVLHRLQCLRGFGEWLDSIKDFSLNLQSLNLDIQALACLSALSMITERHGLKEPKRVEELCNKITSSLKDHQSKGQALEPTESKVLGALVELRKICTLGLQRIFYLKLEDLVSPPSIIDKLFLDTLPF
Sequence of NR4A2 (P43354 whole entry): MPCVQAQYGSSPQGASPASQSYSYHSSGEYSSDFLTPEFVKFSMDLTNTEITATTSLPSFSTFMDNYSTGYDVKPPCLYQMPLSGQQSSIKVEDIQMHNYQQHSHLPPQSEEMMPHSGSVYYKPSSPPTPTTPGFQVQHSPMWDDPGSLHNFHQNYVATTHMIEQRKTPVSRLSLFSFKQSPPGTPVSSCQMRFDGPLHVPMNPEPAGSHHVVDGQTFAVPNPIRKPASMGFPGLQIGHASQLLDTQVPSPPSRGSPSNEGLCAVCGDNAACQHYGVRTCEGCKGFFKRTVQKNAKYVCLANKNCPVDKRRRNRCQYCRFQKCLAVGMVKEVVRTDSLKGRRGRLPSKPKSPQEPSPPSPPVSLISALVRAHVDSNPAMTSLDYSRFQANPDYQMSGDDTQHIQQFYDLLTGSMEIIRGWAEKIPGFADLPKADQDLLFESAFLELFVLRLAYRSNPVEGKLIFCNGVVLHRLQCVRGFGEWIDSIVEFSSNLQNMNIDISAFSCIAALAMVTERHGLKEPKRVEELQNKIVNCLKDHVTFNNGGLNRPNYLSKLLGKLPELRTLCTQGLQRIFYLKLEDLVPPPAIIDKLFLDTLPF

In the case of `Sc1ncnc2nc[nH]c12` [6-mercaptopurine], the “macroscopic appearance of scars (macroscopic VAS)” value (“macroscopic appearance of scars” for short) ([1]; 1 ng/100 μl intradermal) was “improved”, the “microscopic appearance of scars (microscopic VAS)” value (“microscopic appearance of scars” below) ([1]; 1 ng/100 μl intradermal) was “significantly improved” and the “inhibition of scarring, microscopic appearance” value ([1]; 1 ng/100 μl, compared to both diluent and control wounds (p<0.01)) was “significantly inhibited scarring”. The “inhibition of scarring, macroscopic appearance of treated wounds” value ([1]; 1 ng/100 μl, p<0.05 as compared to diluent controls) was “statistically significant inhibition of scarring”, the “macroscopic appearance of scars” value ([1]; 10 ng/100 μl intradermal) was “improved” and the “microscopic appearance of scars” value ([1]; 10 ng/100 μl intradermal) was “significantly improved”. For the same compound, the “inhibition of scarring, microscopic appearance” value ([1]; 10 ng/100 μl, compared to diluent and naïve controls (p<0.05)) was “significantly inhibited scarring”, the “macroscopic appearance of scars” value ([1]; 1000 ng/100 μl intradermal) was “improved” and the “microscopic appearance of scars” value ([1]; 1000 ng/100 μl intradermal) was “significantly improved”. For the same compound, the “inhibition of scarring, microscopic appearance” value ([1]; 1000 ng/100 μl, compared to diluent controls (p<0.05)) was “significantly inhibited scarring”, the “inhibition of scarring, macroscopic appearance of treated wounds” value ([1]; 1000 ng/100 μl, p<0.05 as compared to both diluent and naïve controls) was “statistically significant inhibition of scarring” and the “width of incisional wounds compared to controls” value (incisional wounds; [2]) was “not increased”. The “width of incisional wounds compared to naïve controls” value (incisional wounds; [2]) was “consistently lower”, the “re-epithelialisation of incisional wounds” value (incisional wounds; three days after wounding, comparable with control wounds) was “fully re-epithelialised” and the “width of excisional wounds lower than naïve controls, significance” value (excisional wounds; 1 ng/100 μl, day 3, p<0.01 versus naïve control only (FIG. 5)) was “significantly so”. For the same compound, the “width of excisional wounds compared to controls” value (excisional wounds; [3]) was “not increased”, the “width of excisional wounds compared to naïve controls” value (excisional wounds; [3]) was “consistently lower” and the “percentage re-epithelialisation of excisional wounds” value (excisional wounds; three days after excision, vs diluent control and naïve control) was “trend towards increased re-epithelialisation”. For the same compound, the agonist activity (NR4A1) was “agonist”, the agonist activity (NR4A2) was “agonist” and the agonist activity (NR4A3) was “agonist”.

From US20100204248A1, “MEDICAMENTS AND METHODS FOR INHIBITION OF NON-OCULAR SCARRING” (Renovo Limited, priority 2007, published 2010)
